According to patent US11214803B2, “Modulators of YAP1 expression” (Ionis Pharmaceuticals, Inc., priority 2019, dated 2022):
Strand notation (5' to 3'): a small letter for the sugar, then the base; units joined by * are phosphorothioate-linked, units joined directly phosphodiester-linked; [ ] holds rarer units or linkages, { } end groups; capitals alone tell only the bases. k = constrained ethyl (cEt); [5mC] = 5-methylcytosine; d = 2'-deoxy (DNA)

test system: Yap1 mRNA; experiment: Antisense inhibition of human Yap1 in A-431 cells by cEt gapmers, single dose (Example 2, RTS4814); assay type: cell-based; conditions: A-431 cells, 5,000 cells per well, free uptake, 2,000 nM modified oligonucleotide, approx. 48 hours, RTS4814, normalized to RIBOGREEN; Table 4; asterisk (*) = targets amplicon region of primer probe set
How it was run: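 Read-out is Yap1 mRNA as percent of untreated cells, by real-time RT-PCR (probe set RTS4814) normalized to total RNA via RIBOGREEN. Cells were A-431 dosed with 2,000 nM gapmer without transfection for approximately 48 hours.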

Row | Substance | YAP1 (% UTC)
1 | 716541 (antisense kT*kA*kA*dA*dG*dG*d[5mC]*dA*d[5mC]*dT*dA*d[5mC]*dA*kT*kT*kT) [Compound 716541] | 92
2 | 716523 (antisense k[5mC]*kA*kA*dA*dT*dT*dA*dA*dA*dG*dT*dT*dG*kA*kG*kG) [Compound 716523] | 37

same assay, conditions: Table 5; A-431 cells, 5,000 cells per well, free uptake, 2,000 nM modified oligonucleotide, approx. 48 hours; RTS4814; normalized to RIBOGREEN; Yap1 mRNA relative to untreated control cells

Row | Substance | YAP1 (% UTC)
3 | 716458 (kA*kA*kG*d[5mC]*dA*dG*dG*dG*dA*dA*dA*d[5mC]*d[5mC]*kT*kA*kA; antisense) [Compound 716458] | 94
4 | 716437 (k[5mC]*k[5mC]*kA*dG*dT*dA*dA*dA*dT*d[5mC]*dA*dT*dG*kT*kT*kT; antisense) [Compound 716437] | 41
5 | 716410 (kG*kT*kA*dT*d[5mC]*dA*d[5mC]*d[5mC]*dT*dG*dT*dA*dT*k[5mC]*k[5mC]*kA; antisense) [Compound 716410] | 52
6 | 716554 (kA*kT*kG*d[5mC]*dT*dT*dG*d[5mC]*dG*dA*dG*dG*dA*kT*kA*kA; antisense) [Compound 716554] | 30

same assay, conditions: Table 6; A-431 cells, 5,000 cells per well, free uptake, 2,000 nM modified oligonucleotide, approx. 48 hours; RTS4814; normalized to RIBOGREEN; Yap1 mRNA relative to untreated control cells

Row | Substance | YAP1 (% UTC)
7 | 716573 (kA*kG*kT*dT*dA*d[5mC]*dT*dA*d[5mC]*dT*dG*dT*dA*kA*kT*k[5mC]; antisense) [Compound 716573] | 116
8 | 716420 (k[5mC]*kA*kA*d[5mC]*dT*dG*dG*d[5mC]*dT*dT*dA*dT*dG*kG*kA*kA; antisense) [Compound 716420] | 50

same assay, conditions: Table 18; A-431 cells, 5,000 cells per well, free uptake, 2,000 nM modified oligonucleotide, approx. 48 hours; RTS4814; normalized to RIBOGREEN; Yap1 mRNA as percent of untreated control

Row | Substance | YAP1 (% UTC)
9 | 1075172 (antisense k[5mC]*kT*kT*dT*dA*d[5mC]*dA*dT*dG*dA*dA*d[5mC]*dT*kG*kA*kT) [Compound 1075172] | 14
10 | 1076324 (kG*k[5mC]*kT*d[5mC]*dA*dA*dA*dA*dG*dG*dT*d[5mC]*dT*k[5mC]*kT*k[5mC]; antisense) [Compound 1076324] | 13
11 | 1074916 (antisense kA*kA*kG*dT*dT*dA*d[5mC]*dA*dT*d[5mC]*d[5mC]*d[5mC]*dG*kA*kG*kT) [Compound 1074916] | 75
12 | 1075908 (kA*kA*kT*dA*dA*dG*dG*dA*dG*dT*dA*dG*dG*kT*kG*kG; antisense) [Compound 1075908] | 50

same assay, conditions: Table 19; A-431 cells, 5,000 cells per well, free uptake, 2,000 nM modified oligonucleotide, approx. 48 hours; RTS4814; normalized to RIBOGREEN; Yap1 mRNA as percent of untreated control

Row | Substance | YAP1 (% UTC)
13 | 1074949 (antisense kG*kT*kG*dA*dT*dT*dT*dT*dT*dT*d[5mC]*dT*dG*kA*kG*kT) [Compound 1074949] | 31
14 | 1075301 (k[5mC]*kA*kG*d[5mC]*dA*dA*d[5mC]*dA*d[5mC]*d[5mC]*dT*dA*dA*kG*kG*kA; antisense) [Compound 1075301] | 92
15 | 1076005 (kG*kT*kA*d[5mC]*dA*dA*dA*dA*dT*d[5mC]*dT*d[5mC]*d[5mC]*kA*kG*kG; antisense) [Compound 1076005] | 69

same assay, conditions: Table 20; Yap1 mRNA, percent of untreated control; 3-10-3 cEt gapmers targeting SEQ ID NO.: 1 and 2

Row | Substance | YAP1 (% UTC)
16 | 1075206 (antisense kT*kA*kT*dT*dA*dA*dA*dT*dG*dA*dG*d[5mC]*dA*k[5mC]*k[5mC]*kA) [Compound 1075206] | 36

same assay, conditions: Table 21; Yap1 mRNA, percent of untreated control; 3-10-3 cEt gapmers targeting SEQ ID NO.: 1 and 2

Row | Substance | YAP1 (% UTC)
17 | 1074183 (antisense k[5mC]*k[5mC]*kG*dG*dT*dT*dG*dA*dG*dG*d[5mC]*dG*dG*k[5mC]*kG*kG) [Compound 1074183] | 90
18 | 1074663 (antisense k[5mC]*kA*kT*dT*d[5mC]*dT*dA*dG*dG*dT*dA*dG*dA*kA*kT*kT) [Compound 1074663] | 79
19 | 1074279 (antisense kG*kT*k[5mC]*dA*dA*dG*d[5mC]*d[5mC]*dT*dT*dG*dG*dG*kT*k[5mC]*kT) [Compound 1074279] | 13

same assay, conditions: Table 22; Yap1 mRNA as percent of untreated control; 3-10-3 cEt gapmers; single dose

Row | Substance | YAP1 (% UTC)
20 | 1076040 (k[5mC]*kT*kT*dA*dA*dA*dG*dA*dA*dG*d[5mC]*dA*d[5mC]*kT*kA*kG; antisense) [Compound 1076040] | 105
21 | 1075656 (kA*kA*kA*dA*d[5mC]*dG*dG*dT*dT*dT*dT*dT*d[5mC]*kT*kA*kA; antisense) [Compound 1075656] | 103
22 | 1075944 (kT*kA*kT*dT*dA*dG*dG*dA*dA*d[5mC]*dA*dG*dA*kT*k[5mC]*kA; antisense) [Compound 1075944] | 25
23 | 1075528 (kA*kT*k[5mC]*dG*dA*dA*dG*dG*dG*d[5mC]*dA*dA*dA*k[5mC]*kT*k[5mC]; antisense) [Compound 1075528] | 42

same assay, conditions: Table 23; Yap1 mRNA as percent of untreated control; 3-10-3 cEt gapmers; single dose

Row | Substance | YAP1 (% UTC)
24 | 1074921 (antisense k[5mC]*kA*k[5mC]*dT*d[5mC]*dA*dA*dG*dT*dT*dA*d[5mC]*dA*kT*k[5mC]*k[5mC]) [Compound 1074921] | 65
25 | 1074185 (antisense kG*kG*k[5mC]*d[5mC]*dG*dG*dT*dT*dG*dA*dG*dG*d[5mC]*kG*kG*k[5mC]) [Compound 1074185] | 91
26 | 1074569 (antisense kT*kG*kA*dA*d[5mC]*d[5mC]*dT*dA*d[5mC]*dT*d[5mC]*dA*d[5mC]*kT*kG*kA) [Compound 1074569] | 8
27 | 1076489 (antisense k[5mC]*kA*kA*dA*dA*dT*dA*dG*dG*dT*dG*dA*dG*kT*k[5mC]*kA) [Compound 1076489] | 2

same assay, conditions: Table 24; Yap1 mRNA as percent of untreated control; 3-10-3 cEt gapmers targeting SEQ ID NO.: 1, and 2

Row | Substance | YAP1 (% UTC)
28 | 1074474 (k[5mC]*k[5mC]*kA*dA*d[5mC]*d[5mC]*d[5mC]*d[5mC]*d[5mC]*d[5mC]*d[5mC]*dA*d[5mC]*k[5mC]*kG*kA; antisense) [Compound 1074474] | 71
29 | 1074858 (antisense kA*kA*k[5mC]*dA*dT*dT*dG*dG*dT*dA*d[5mC]*dT*dA*kT*kA*kT) [Compound 1074858] | 23
30 | 1075338 (k[5mC]*k[5mC]*k[5mC]*dA*dA*dA*dA*dA*d[5mC]*dT*dA*dG*d[5mC]*kT*kT*kA; antisense) [Compound 1075338] | 56
31 | 1075082 (antisense k[5mC]*kT*kT*dT*dA*dG*dA*dT*dA*d[5mC]*dA*dA*dG*kA*kG*kG) [Compound 1075082] | 80

same assay, conditions: Table 25; Yap1 mRNA as percent of untreated control; 3-10-3 cEt gapmers targeting SEQ ID NO.: 1, and 2

Row | Substance | YAP1 (% UTC)
32 | 1075211 (antisense kA*kA*kT*dA*dA*dA*dG*dG*dG*dT*d[5mC]*d[5mC]*dT*kA*kA*k[5mC]) [Compound 1075211] | 91
33 | 1075499 (kG*k[5mC]*kT*dA*dA*dA*dA*dA*dA*dT*dG*dA*dG*kT*kA*kG; antisense) [Compound 1075499] | 99

same assay, conditions: Table 32; Yap1 mRNA, percent of untreated control; 3-10-3 cEt gapmers targeting SEQ ID NO.: 1, and 2

Row | Substance | YAP1 (% UTC)
34 | 1075922 (antisense kG*k[5mC]*k[5mC]*d[5mC]*dA*dA*dA*dA*dT*dA*dG*dG*dA*kT*kA*k[5mC]) [compound 1075922] | 60
35 | 1074386 (k[5mC]*kA*kG*dG*dA*dA*dT*dG*dG*d[5mC]*dT*dT*d[5mC]*kA*kA*kG; antisense) [compound 1074386] | 39

same assay, conditions: Table 33; Yap1 mRNA, percent of untreated control; 3-10-3 cEt gapmers targeting SEQ ID NO.: 1, and 2

Row | Substance | YAP1 (% UTC)
36 | 1074643 (antisense kT*kT*kG*dA*dA*dG*dG*dG*d[5mC]*d[5mC]*dA*dA*dA*kA*kT*kA) [compound 1074643] | 68
37 | 1075923 (antisense kT*kT*kT*dA*dA*dT*dA*d[5mC]*dT*d[5mC]*dT*d[5mC]*dT*kG*kG*kG) [compound 1075923] | 42
38 | 1074323 (antisense k[5mC]*kA*kG*dG*dG*d[5mC]*dT*dA*dA*d[5mC]*dT*d[5mC]*d[5mC]*kT*kG*kA) [compound 1074323] | 116

same assay, conditions: Yap1 mRNA as percent of untreated control; A-431 cells; 3-10-3 cEt gapmers targeting SEQ ID NO.: 1, and 2; Table 30

Row | Substance | YAP1 (% UTC)
39 | 1075600 (antisense k[5mC]*kA*k[5mC]*dT*dA*dT*dA*dA*dT*d[5mC]*dT*dG*dA*k[5mC]*k[5mC]*k[5mC]) [compound 1075600] | 68
40 | 1074960 (antisense k[5mC]*kT*kT*dA*dA*d[5mC]*d[5mC]*d[5mC]*dG*dG*dG*dT*dT*kT*kT*kT) [compound 1074960] | 81
41 | 1076496 (kG*kT*kT*dA*dA*dA*dG*dA*d[5mC]*d[5mC]*dA*dA*d[5mC]*kA*k[5mC]*kA; antisense) [compound 1076496] | 81
42 | 1074128 (k[5mC]*kT*k[5mC]*d[5mC]*dA*d[5mC]*dT*dG*dG*dT*d[5mC]*dT*dG*kG*k[5mC]*kG; antisense) [compound 1074128] | 76

same assay, conditions: Yap1 mRNA as percent of untreated control; A-431 cells; 3-10-3 cEt gapmers targeting SEQ ID NO.: 1, and 2; Table 31

Row | Substance | YAP1 (% UTC)
43 | 1075409 (antisense k[5mC]*kT*kT*dT*dA*dA*dA*dT*dA*dG*d[5mC]*dA*dG*kA*kG*kG) [compound 1075409] | 22
44 | 1075633 (antisense k[5mC]*kT*kA*dT*dA*dT*dT*dG*dG*d[5mC]*dT*d[5mC]*d[5mC]*kT*kA*kG) [compound 1075633] | 82
45 | 1076529 (k[5mC]*kT*kA*dT*dA*dA*dT*dG*dA*dG*dG*dA*dT*kT*kA*k[5mC]; antisense) [compound 1076529] | 108
